Target: [3H]Noradenaline reuptake (Rattus norvegicus, UniProt Q9WTR4)
Assay: biochemical

Sequence of [3H]Noradenaline reuptake (Q9WTR4 1-597): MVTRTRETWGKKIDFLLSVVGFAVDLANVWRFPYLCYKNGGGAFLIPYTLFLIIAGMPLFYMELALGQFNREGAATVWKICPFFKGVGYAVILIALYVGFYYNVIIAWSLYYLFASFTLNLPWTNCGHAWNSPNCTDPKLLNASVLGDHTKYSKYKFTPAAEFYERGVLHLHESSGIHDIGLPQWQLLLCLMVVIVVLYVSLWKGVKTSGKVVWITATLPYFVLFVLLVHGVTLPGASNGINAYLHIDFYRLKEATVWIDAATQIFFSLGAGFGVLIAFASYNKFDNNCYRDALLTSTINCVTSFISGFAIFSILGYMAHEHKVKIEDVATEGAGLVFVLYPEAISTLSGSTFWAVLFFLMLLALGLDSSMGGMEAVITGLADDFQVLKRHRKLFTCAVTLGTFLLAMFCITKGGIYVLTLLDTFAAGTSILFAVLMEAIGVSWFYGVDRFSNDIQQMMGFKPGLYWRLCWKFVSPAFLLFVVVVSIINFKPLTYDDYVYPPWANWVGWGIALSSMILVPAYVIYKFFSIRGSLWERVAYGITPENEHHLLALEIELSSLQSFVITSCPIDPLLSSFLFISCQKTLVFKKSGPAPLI

CC(NC(C)(C)C)C(=O)c1cccc(Cl)c1 (stereo not shown) [Bupropion]
Ki: 2.59 µM
